This passage reports IC50 results from patent US11447466B2, “Substituted indole compounds useful as inhibitors of TLR7/8/9” (BRISTOL-MYERS SQUIBB COMPANY, priority 2017, dated 2022).

Each structure is given as a SMILES string.

Holding throughout (format): cell-based
The target of one assay is T1, human TLR7 (Homo sapiens, UniProt Q9NYK1).
T1 construct: host or cells: HEK-Blue cells
T1 sequence (Q9NYK1 27-1049): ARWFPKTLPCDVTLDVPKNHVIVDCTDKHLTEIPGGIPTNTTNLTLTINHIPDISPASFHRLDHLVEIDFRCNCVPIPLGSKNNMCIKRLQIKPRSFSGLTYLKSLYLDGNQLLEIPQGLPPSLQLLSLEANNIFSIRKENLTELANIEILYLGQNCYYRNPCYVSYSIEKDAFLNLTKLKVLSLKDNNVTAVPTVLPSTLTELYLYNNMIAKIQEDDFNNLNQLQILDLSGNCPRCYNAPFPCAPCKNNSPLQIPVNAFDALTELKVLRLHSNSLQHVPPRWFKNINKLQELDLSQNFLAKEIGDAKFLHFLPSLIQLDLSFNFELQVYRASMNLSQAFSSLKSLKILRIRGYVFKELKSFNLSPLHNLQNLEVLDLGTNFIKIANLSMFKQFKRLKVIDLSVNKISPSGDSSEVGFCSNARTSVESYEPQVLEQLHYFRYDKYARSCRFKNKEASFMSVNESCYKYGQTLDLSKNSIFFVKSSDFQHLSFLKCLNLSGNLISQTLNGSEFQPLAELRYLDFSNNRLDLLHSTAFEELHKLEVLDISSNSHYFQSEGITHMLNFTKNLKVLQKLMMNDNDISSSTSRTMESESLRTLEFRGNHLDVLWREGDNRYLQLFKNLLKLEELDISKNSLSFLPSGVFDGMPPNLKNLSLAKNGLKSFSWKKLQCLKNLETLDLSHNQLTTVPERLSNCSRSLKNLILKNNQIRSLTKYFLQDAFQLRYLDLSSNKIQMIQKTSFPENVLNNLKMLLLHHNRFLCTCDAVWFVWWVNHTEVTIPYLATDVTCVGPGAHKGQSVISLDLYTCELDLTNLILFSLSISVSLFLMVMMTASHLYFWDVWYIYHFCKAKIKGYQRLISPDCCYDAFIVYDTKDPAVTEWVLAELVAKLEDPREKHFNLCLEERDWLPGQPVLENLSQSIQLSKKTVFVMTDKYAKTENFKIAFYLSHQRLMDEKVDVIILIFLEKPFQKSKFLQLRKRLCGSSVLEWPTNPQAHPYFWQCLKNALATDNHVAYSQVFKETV
As to the kind of experiment: TLR7 inhibition reporter assay (HEK-Blue SEAP reporter, gardiquimod stimulation). The conditions noted are these: HEK-Blue cells overexpressing human TLR7, SEAP reporter, gardiquimod 7.5 μM, 22 hour incubation. Put shortly: (§1)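 Dose–response from 0.05 nM to 50 μM was run in HEK-Blue human TLR7, TLR8 and TLR9 reporter cells. After 30 min at room temperature with compound, ligand was added (TLR7 gardiquimod 7.5 μM; TLR8 R848 15.9 μM; TLR9 ODN2006 5 nM) and SEAP measured next day, at 22 h.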
(Reporter assays use an easily measured gene product as a stand-in for the process of interest.)

A further assay has as its target T2, human TLR9 (Homo sapiens, UniProt Q9NR96).
T2 construct: host or cells: HEK-Blue cells
T2 sequence (Q9NR96 26-1032): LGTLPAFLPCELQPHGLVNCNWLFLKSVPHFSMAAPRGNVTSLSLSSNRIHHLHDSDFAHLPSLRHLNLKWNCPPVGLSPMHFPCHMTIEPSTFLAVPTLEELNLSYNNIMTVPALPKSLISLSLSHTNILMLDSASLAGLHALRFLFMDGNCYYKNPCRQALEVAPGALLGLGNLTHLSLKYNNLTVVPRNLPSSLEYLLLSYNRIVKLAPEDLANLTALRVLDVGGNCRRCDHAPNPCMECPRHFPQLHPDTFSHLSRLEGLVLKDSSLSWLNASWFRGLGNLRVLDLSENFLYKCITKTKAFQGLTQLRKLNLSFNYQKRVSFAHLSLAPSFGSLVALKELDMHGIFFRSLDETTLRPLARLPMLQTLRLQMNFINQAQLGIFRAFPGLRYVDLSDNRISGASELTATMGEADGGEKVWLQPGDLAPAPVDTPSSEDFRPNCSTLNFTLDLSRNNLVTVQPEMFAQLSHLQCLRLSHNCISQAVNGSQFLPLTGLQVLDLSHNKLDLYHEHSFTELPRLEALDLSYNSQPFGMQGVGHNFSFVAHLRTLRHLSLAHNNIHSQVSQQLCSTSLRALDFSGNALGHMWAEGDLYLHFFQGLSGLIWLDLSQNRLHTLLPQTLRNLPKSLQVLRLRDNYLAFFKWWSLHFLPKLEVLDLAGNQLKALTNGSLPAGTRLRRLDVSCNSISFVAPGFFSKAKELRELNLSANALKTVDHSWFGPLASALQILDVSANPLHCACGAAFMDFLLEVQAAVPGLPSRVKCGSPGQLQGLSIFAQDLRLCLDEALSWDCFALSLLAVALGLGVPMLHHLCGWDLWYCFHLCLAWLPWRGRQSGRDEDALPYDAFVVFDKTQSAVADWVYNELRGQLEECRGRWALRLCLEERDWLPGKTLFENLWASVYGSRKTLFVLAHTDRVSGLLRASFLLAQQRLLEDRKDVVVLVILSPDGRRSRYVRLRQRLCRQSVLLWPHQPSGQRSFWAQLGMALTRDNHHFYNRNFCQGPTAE
In words: TLR9 inhibition reporter assay (HEK-Blue SEAP reporter, ODN2006 stimulation). The conditions noted are these: HEK-Blue cells overexpressing human TLR9, SEAP reporter, ODN2006 5 nM, 22 hour incubation. In short, it runs like this: as §1

The target in another assay is T3, human TLR8 (Homo sapiens, UniProt Q9NR97).
T3 construct: host or cells: HEK-Blue cells
T3 sequence (Q9NR97 27-1041): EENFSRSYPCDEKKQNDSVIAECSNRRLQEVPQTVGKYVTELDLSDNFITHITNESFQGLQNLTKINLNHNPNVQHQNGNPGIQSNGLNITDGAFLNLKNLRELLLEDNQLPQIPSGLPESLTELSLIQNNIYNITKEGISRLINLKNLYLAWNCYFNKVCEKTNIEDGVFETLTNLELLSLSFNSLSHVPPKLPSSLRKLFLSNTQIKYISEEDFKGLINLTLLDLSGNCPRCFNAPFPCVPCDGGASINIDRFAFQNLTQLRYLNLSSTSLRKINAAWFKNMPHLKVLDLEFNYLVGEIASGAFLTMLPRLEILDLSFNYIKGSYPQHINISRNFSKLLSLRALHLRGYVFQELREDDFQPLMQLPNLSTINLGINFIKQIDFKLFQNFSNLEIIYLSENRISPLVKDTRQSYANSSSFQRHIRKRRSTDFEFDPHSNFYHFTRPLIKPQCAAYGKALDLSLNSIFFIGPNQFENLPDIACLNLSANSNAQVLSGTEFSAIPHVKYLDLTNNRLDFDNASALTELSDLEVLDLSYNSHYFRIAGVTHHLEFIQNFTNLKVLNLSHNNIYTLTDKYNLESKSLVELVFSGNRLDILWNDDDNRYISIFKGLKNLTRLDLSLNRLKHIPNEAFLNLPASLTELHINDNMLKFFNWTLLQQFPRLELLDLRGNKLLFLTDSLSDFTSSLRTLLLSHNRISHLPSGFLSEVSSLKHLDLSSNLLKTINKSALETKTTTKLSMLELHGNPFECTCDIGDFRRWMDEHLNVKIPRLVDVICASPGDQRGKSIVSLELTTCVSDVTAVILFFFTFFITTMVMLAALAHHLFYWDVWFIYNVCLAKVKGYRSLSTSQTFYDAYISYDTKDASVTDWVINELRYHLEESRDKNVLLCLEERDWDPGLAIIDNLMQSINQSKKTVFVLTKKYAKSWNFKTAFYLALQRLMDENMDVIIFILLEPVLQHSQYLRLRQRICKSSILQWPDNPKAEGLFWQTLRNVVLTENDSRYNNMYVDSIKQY
As to the kind of experiment: TLR8 inhibition reporter assay (HEK-Blue SEAP reporter, R848 stimulation). The conditions noted are these: HEK-Blue cells overexpressing human TLR8, SEAP reporter, R848 15.9 μM, 22 hour incubation. In short, it runs like this: as §1

Regarding `Cc1cc(-c2[nH]c3ccc(C4CCN(CC(=O)N(C)C)CC4)cc3c2C(C)C)nn(C)c1=O` [Example 116, 2-(4-(2-(1,5-dimethyl-6-oxo-1,6-dihydropyridazin-3-yl)-3-isopropyl-1H-indol-5-yl)piperidin-1-yl)-N,N-dimethylacetamide], the values for the IC50 against human TLR7, on human TLR9 and at human TLR8 were 29.6 nM, 6100 nM and 23.8 nM, respectively.
As for `CC(C)c1c(-c2cc(-c3cncnc3)c(=O)n(C)c2)[nH]c2ccc(C3CCNCC3)cc12` [Example 54, 5-(3-isopropyl-5-(piperidin-4-yl)-1H-indol-2-yl)-1-methyl-3-(pyrimidin-5-yl)pyridin-2(1H)-one], the values for the IC50 on human TLR7, against human TLR9 and at human TLR8 were 23.4 nM, 753 nM and 5.9 nM, respectively.
Take `Cc1cc(-c2[nH]c3ccc(C4CCNCC4)cc3c2C(C)C)cn(CC(C)C)c1=O` [Example 36, 1-isobutyl-5-(3-isopropyl-5-(piperidin-4-yl)-1H-indol-2-yl)-3-methylpyridin-2(1H)-one]: the IC50 (in general, the concentration that inhibits the measured activity by half) worked out at 9.6 nM on human TLR7, 1310 nM against human TLR9 and 81.2 nM at human TLR8.
Consider `CCn1cc(-c2[nH]c3ccc(C4CCN(C(C)C)CC4)cc3c2C(C)C)c(C)c(C)c1=O` [Example 213, 1-ethyl-5-(3-isopropyl-5-(1-isopropylpiperidin-4-yl)-1H-indol-2-yl)-3,4-dimethylpyridin-2(1H)-one], for which the values for the 50% inhibitory concentration (IC50) at human TLR7, on human TLR9 and against human TLR8 were 15.6 nM, 2910 nM and 16.5 nM, respectively.
For `Cc1nc(-c2[nH]c3ccc(C4CCN(C5CCCOC5)CC4)cc3c2C(C)C)cn(C)c1=O` (stereo not drawn) [Example 187, 5-(3-isopropyl-5-(1-(tetrahydro-2H-pyran-3-yl)piperidin-4-yl)-1H-indol-2-yl)-1,3-dimethylpyrazin-2(1H)-one], the IC50 at human TLR7 stood at 85.4 nM; against human TLR9, 655 nM; at human TLR8, 30.1 nM.
Take `COCc1cc(-c2[nH]c3ccc(C4CCN(CC(C)(C)O)CC4)cc3c2C(C)C)cn(C)c1=O` [Example 323, 5-(5-(1-(2-hydroxy-2-methylpropyl)piperidin-4-yl)-3-isopropyl-1H-indol-2-yl)-3-(methoxymethyl)-1-methylpyridin-2(1H)-one]: the half-maximal inhibitory concentration (IC50) against human TLR7 came out at 18.4 nM; at human TLR9 it was 7180 nM; at human TLR8, 13.9 nM.
For `CCc1c(-c2cn(C)c(=O)c(Cl)c2C)[nH]c2ccc(C3CCN(CC(=O)N(C)C)CC3)cc12` [Example 157, 2-(4-(2-(5-chloro-1,4-dimethyl-6-oxo-1,6-dihydropyridin-3-yl)-3-ethyl-1H-indol-5-yl)piperidin-1-yl)-N,N-dimethylacetamide], in that order: 12.8 nM, 6390 nM and 12.2 nM.
`CNC(C)(C)C(=O)N1CCC(c2ccc3[nH]c(-c4cc(C)c(=O)n(C)c4)c(C(C)C)c3c2)CC1` [Example 298, 5-(3-isopropyl-5-(1-(2-methyl-2-(methylamino)propanoyl)piperidin-4-yl)-1H-indol-2-yl)-1,3-dimethylpyridin-2(1H)-one]: the IC50 on human TLR7 came out at 169 nM; on human TLR9, 21300 nM; at human TLR8 it was 148 nM.
As for `Cc1c(-c2[nH]c3ccc(C4CCNCC4)cc3c2C(C)C)cn(C)c(=O)c1C` [Example 14, 5-(3-isopropyl-5-(piperidin-4-yl)-1H-indol-2-yl)-1,3,4-trimethylpyridin-2(1H)-one], the IC50 was 3.5 nM at human TLR7, 1650 nM on human TLR9 and 3.6 nM against human TLR8.
For `COc1c(C)c(-c2[nH]c3ccc(C4CCN(C5COC5)CC4)cc3c2C(C)C)cn(C)c1=O` [Example 215, 5-(3-isopropyl-5-(1-(oxetan-3-yl)piperidin-4-yl)-1H-indol-2-yl)-3-methoxy-1,4-dimethylpyridin-2(1H)-one], in that order: 66.1 nM, 17200 nM and 54.9 nM.
`Cc1c(-c2[nH]c3ccc(C4CCN(C5COC5)CC4)cc3c2C(C)C)nn(C)c(=O)c1C` [Example 203, 6-(3-isopropyl-5-(1-(oxetan-3-yl)piperidin-4-yl)-1H-indol-2-yl)-2,4,5-trimethylpyridazin-3(2H)-one]: the half-maximal inhibitory concentration (IC50) at human TLR7 amounted to 272 nM; at human TLR9, 16900 nM; on human TLR8, 28.7 nM.
For the compound `Cc1cc(-c2[nH]c3ccc(C4CCN(C(=O)CN(C)C)CC4)cc3c2C(C)C)cn(Cc2ccccc2)c1=O` [Example 284, 1-benzyl-5-(5-(1-(dimethylglycyl)piperidin-4-yl)-3-isopropyl-1H-indol-2-yl)-3-methylpyridin-2(1H)-one], the IC50 was 6.5 nM on human TLR7, 1660 nM at human TLR9 and 21.8 nM at human TLR8.
For the compound `Cc1cc(-c2[nH]c3ccc(C4CCN([C@@H]5CCNC5=O)CC4)cc3c2C(C)C)cn(C)c1=O` [Example 123, (R)-5-(3-isopropyl-5-(1-(2-oxopyrrolidin-3-yl)piperidin-4-yl)-1H-indol-2-yl)-1,3-dimethylpyridin-2(1H)-one], the IC50 was determined as 7 nM at human TLR7, 23800 nM on human TLR9 and 8 nM on human TLR8.
